Assay results taken from patent US8217029B2, “Oxazolidinone antibiotics” (Actelion Pharmaceuticals Ltd, priority 2007, dated 2012).
In brackets after ≈: the same amount, converted by molar mass.

System: S aureus A798
Experiment: Minimal inhibitory concentration (MIC), microdilution method in cation-adjusted Mueller-Hinton Broth following NCCLS guidelines
Format: cell-based
Conditions: pH of test medium 7.2-7.3
Protocol: These assays have been performed following the description given in “Methods for dilution Antimicrobial Susceptibility Tests for Bacteria that Grow Aerobically, 4th ed.; Approved standard: NCCLS Document M7-A4; National Committee for Clinical Laboratory Standards Villanova, Pa., USA, 1997”. Minimal inhibitory concentrations (MICs; mg/l) were determined in cation-adjusted Mueller-Hinton Broth by a microdilution method following NCCLS guidelines (National Committee for Clinical Laboratory Standards. Methods for Dilution Antimicrobial Susceptibility). The pH of the test medium was 7.2-7.3. All Example compounds were tested against several Gram positive and Gram negative bacteria.

Row | SMILES | MIC [µg/mL]
1 | COc1ccc2nccc(N3CC(N(C)C[C@@H]4CN(c5cccc(N(C)C)c5)C(=O)O4)C3)c2n1 [Example 140, (R)-3-(3-Dimethylamino-phenyl)-5-({[1-(6-methoxy-[1,5]naphthyridin-4-yl)-azetidin-3-yl]-methyl-amino}-methyl)-oxazolidin-2-one] | 0.25 (≈ 0.54 µM)
2 | COc1ccc2nccc(N3CC(CNCCC4CN(c5ccc(C)c(F)c5)C(=O)O4)C3)c2n1 (racemic) [Example 149, (RS)-3-(3-Fluoro-4-methyl-phenyl)-5-(2-{[1-(6-methoxy-[1,5]naphthyridin-4-yl)-azetidin-3-ylmethyl]-amino}-ethyl)-oxazolidin-2-one] | 0.063 (≈ 0.135 µM)
3 | COc1ccc2nccc(N3CC(NC[C@@H]4CN(c5ccc(OC(F)F)cc5)C(=O)O4)C3)c2n1 [Example 176, (R)-3-(4-Difluoromethoxy-phenyl)-5-{[1-(6-methoxy-[1,5]naphthyridin-4-yl)-azetidin-3-ylamino]-methyl}-oxazolidin-2-one] | ≤ 0.031
4 | COc1ccc2ncnc(N3CC(NC[C@@H]4CN(c5ccc6c(c5)NC(=O)CS6)C(=O)O4)C3)c2c1 [Example 55, 6-((R)-5-{[1-(6-Methoxy-quinazolin-4-yl)-azetidin-3-ylamino]-methyl}-2-oxo-oxazolidin-3-yl)-4H-benzo[1,4]thiazin-3-one] | ≤ 0.031
5 | COc1ccc2nccc(N3C[C@H](NC(=O)[C@@H]4CN(c5ccc6c(c5)OCCO6)C(=O)O4)C[C@H]3CO)c2n1 [Example 78, (S)-3-(2,3-Dihydro-benzo[1,4]dioxin-6-yl)-2-oxo-oxazolidine-5-carboxylic acid [(3R,5S)-5-hydroxymethyl-1-(6-methoxy-[1,5]naphthyridin-4-yl)-pyrrolidin-3-yl]-amide] | ≤ 0.031
6 | COc1ccc2nccc(N3CCN(C[C@H]4CN(c5ccc6c(c5)OCCO6)C(=O)O4)CC3)c2n1 [Example 37, (S)-3-(2,3-Dihydro-benzo[1,4]dioxin-6-yl)-5-[4-(6-methoxy-[1,5]naphthyridin-4-yl)-piperazin-1-ylmethyl]-oxazolidin-2-one] | 0.063 (≈ 0.132 µM)
7 | COc1ccc2nccc(C3(O)CCN(CC4CN(c5ccc6c(c5)OCCO6)C(=O)O4)CC3)c2n1 (racemic) [Example 3, (RS)-3-(2,3-Dihydro-benzo[1,4]dioxin-6-yl)-5-[4-hydroxy-4-(6-methoxy-[1,5]naphthyridin-4-yl)-piperidin-1-ylmethyl]-oxazolidin-2-one] | ≤ 0.031
8 | COc1ccc2nccc(N3CCCN(C[C@@H]4CN(c5ccc6c(c5)NC(=O)CO6)C(=O)O4)CC3)c2n1 [Example 105, 6-{(R)-5-[4-(6-Methoxy-[1,5]naphthyridin-4-yl)-[1,4]diazepan-1-ylmethyl]-2-oxo-oxazolidin-3-yl}-4H-benzo[1,4]oxazin-3-one] | ≤ 0.031
9 | COc1ccc2nccc(N3CC[C@@H](NC(=O)[C@@H]4CN(c5ccc(C)c(F)c5)C(=O)O4)C3)c2n1 [Example 62, (S)-3-(3-Fluoro-4-methyl-phenyl)-2-oxo-oxazolidine-5-carboxylic acid [(R)-1-(6-methoxy-[1,5]naphthyridin-4-yl)-pyrrolidin-3-yl]-amide] | ≤ 0.031
10 | COc1ccc2nccc(N3C[C@@H](CNC[C@@H]4CN(c5ccc6c(c5)NC(=O)CS6)C(=O)O4)[C@@H](O)C3)c2n1 (mixture of isomers) [Example 83, 6-[(R)-5-({[(3RS)-(4RS)-4-Hydroxy-1-(6-methoxy-[1,5]naphthyridin-4-yl)-pyrrolidin-3-ylmethyl]-amino}-methyl)-2-oxo-oxazolidin-3-yl]-4H-benzo[1,4]thiazin-3-one] | 0.25
11 | COc1ccc2nccc(N3CCCN(C[C@@H]4CN(c5ccc6c(c5)OCCO6)C(=O)O4)CC3)c2n1 [Example 107, (R)-3-(2,3-Dihydro-benzo[1,4]dioxin-6-yl)-5-[4-(6-methoxy-[1,5]naphthyridin-4-yl)-[1,4]diazepan-1-ylmethyl]-oxazolidin-2-one] | ≤ 0.031
12 | COc1ccc2nccc(N3CC(N(C)C[C@@H]4CN(c5cccc(F)c5)C(=O)O4)C3)c2n1 [Example 147, (R)-3-(3-Fluoro-phenyl)-5-({[1-(6-methoxy-[1,5]naphthyridin-4-yl)-azetidin-3-yl]-methyl-amino}-methyl)-oxazolidin-2-one] | 0.25 (≈ 0.571 µM)
13 | CCOc1ccc(N2C[C@@H](CNC3CCN(c4ccnc5ccc(OC)nc45)CC3)OC2=O)cc1 [Example 184, (R)-3-(4-Ethoxy-phenyl)-5-{[1-(6-methoxy-[1,5]naphthyridin-4-yl)-piperidin-4-ylamino]-methyl}-oxazolidin-2-one] | 0.5 (≈ 1.05 µM)
14 | COc1ccc2nccc(N3CC(NC[C@@H]4CN(c5ccc6c(c5)NC(=O)CS6)C(=O)O4)C3)c2c1 [Example 49, 6-((R)-5-{[1-(6-Methoxy-quinolin-4-yl)-azetidin-3-ylamino]-methyl}-2-oxo-oxazolidin-3-yl)-4H-benzo[1,4]thiazin-3-one] | ≤ 0.031
15 | COc1ccc2nccc(N3CCC(O)(CC4CN(c5ccc6c(c5)OCCO6)C(=O)O4)CC3)c2n1 (racemic) [Example 5, (RS)-3-(2,3-Dihydro-benzo[1,4]dioxin-6-yl)-5-[4-hydroxy-1-(6-methoxy-[1,5]naphthyridin-4-yl)-piperidin-4-ylmethyl]-oxazolidin-2-one] | ≤ 0.031
16 | COc1ccc2nccc(N3CCN(C[C@@H]4CN(c5ccc6c(c5)OCCO6)C(=O)O4)CC3)c2n1 [Example 9, (R)-3-(2,3-Dihydro-benzo[1,4]dioxin-6-yl)-5-[4-(6-methoxy-[1,5]naphthyridin-4-yl)-piperazin-1-ylmethyl]-oxazolidin-2-one] | ≤ 0.031
17 | COc1ccc2nccc(N3CCC(NC[C@@H]4CN(c5ccc(C)c(F)c5)C(=O)O4)CC3)c2n1 [Example 121, (R)-3-(3-Fluoro-4-methyl-phenyl)-5-{[1-(6-methoxy-[1,5]naphthyridin-4-yl)-piperidin-4-ylamino]-methyl}-oxazolidin-2-one] | ≤ 0.031
18 | COc1ccc2ncc(F)c(N3CC(N(C)C[C@@H]4CN(c5ccc6c(c5)NC(=O)CO6)C(=O)O4)C3)c2n1 [Example 127, 6-[(R)-5-({[1-(3-Fluoro-6-methoxy-[1,5]naphthyridin-4-yl)-azetidin-3-yl]-methyl-amino}-methyl)-2-oxo-oxazolidin-3-yl]-4H-benzo[1,4]oxazin-3-one] | ≤ 0.031
19 | COc1ccc2nccc(N3CC(N(C)C[C@@H]4CN(c5ccc6c(n5)NC(=O)CO6)C(=O)O4)C3)c2n1 [Example 150, 6-[(R)-5-({[1-(6-Methoxy-[1,5]naphthyridin-4-yl)-azetidin-3-yl]-methyl-amino}-methyl)-2-oxo-oxazolidin-3-yl]-4H-pyrido[3,2-b][1,4]oxazin-3-one] | ≤ 0.031
20 | COc1ccc2nccc(N3CC(CNC[C@H]4CN(c5ccc6c(c5)NC(=O)CS6)C(=O)O4)C3)c2n1 [Example 59, 6-[(S)-5-({[1-(6-Methoxy-[1,5]naphthyridin-4-yl)-azetidin-3-ylmethyl]-amino}-methyl)-2-oxo-oxazolidin-3-yl]-4H-benzo[1,4]thiazin-3-one] | ≤ 0.031
21 | COc1ccc2ncnc(N3CC(NC[C@@H]4CN(c5ccc6c(c5)NC(=O)CO6)C(=O)O4)C3)c2c1 [Example 54, 6-((R)-5-{[1-(6-Methoxy-quinazolin-4-yl)-azetidin-3-ylamino]-methyl}-2-oxo-oxazolidin-3-yl)-4H-benzo[1,4]oxazin-3-one] | ≤ 0.031
22 | COc1ccc2nccc(N3CC(CNC(=O)[C@@H]4CN(c5ccc(C)c(F)c5)C(=O)O4)C3)c2n1 [Example 130, (S)-3-(3-Fluoro-4-methyl-phenyl)-2-oxo-oxazolidine-5-carboxylic acid [1-(6-methoxy-[1,5]naphthyridin-4-yl)-azetidin-3-ylmethyl]-amide] | 0.25 (≈ 0.537 µM)
23 | COc1ccc2nccc(N3CCN(C[C@@H]4CN(c5cccc(OC(F)(F)F)c5)C(=O)O4)CC3)c2n1 [Example 10, (R)-5-[4-(6-Methoxy-[1,5]naphthyridin-4-yl)-piperazin-1-ylmethyl]-3-(3-trifluoromethoxy-phenyl)-oxazolidin-2-one] | 0.25 (≈ 0.497 µM)
24 | COc1ccc2nccc(N3CCN(C[C@@H]4CN(c5cccc(C(F)(F)F)c5)C(=O)O4)CC3)c2n1 [Example 16, (R)-5-[4-(6-Methoxy-[1,5]naphthyridin-4-yl)-piperazin-1-ylmethyl]-3-(3-trifluoromethyl-phenyl)-oxazolidin-2-one] | 0.25 (≈ 0.513 µM)
25 | COc1ccc2nccc(N3C[C@H](NC[C@@H]4CN(c5ccc6c(c5)NC(=O)CS6)C(=O)O4)C[C@H]3CO)c2n1 [Example 79, 6-((R)-5-{[(3R,5S)-5-Hydroxymethyl-1-(6-methoxy-[1,5]naphthyridin-4-yl)-pyrrolidin-3-ylamino]-methyl}-2-oxo-oxazolidin-3-yl)-4H-benzo[1,4]thiazin-3-one] | 0.25 (≈ 0.466 µM)
26 | COc1cnc2cccc(N3CC(CNC[C@@H]4CN(c5ccc6c(c5)NC(=O)CS6)C(=O)O4)C3)c2c1 [Example 163, 6-[(R)-5-({[1-(3-Methoxy-quinolin-5-yl)-azetidin-3-ylmethyl]-amino}-methyl)-2-oxo-oxazolidin-3-yl]-4H-benzo[1,4]thiazin-3-one] | ≤ 0.031
27 | COc1ccc2nccc(N3CC(CNC[C@@H]4CN(c5ccc(C)c(F)c5)C(=O)O4)C3)c2n1 [Example 154, (R)-3-(3-Fluoro-4-methyl-phenyl)-5-({[1-(6-methoxy-[1,5]naphthyridin-4-yl)-azetidin-3-ylmethyl]-amino}-methyl)-oxazolidin-2-one] | 0.063 (≈ 0.14 µM)
28 | COc1ccc2nccc(N3CCC(CNC(=O)[C@@H]4CN(c5ccc(C)c(F)c5)C(=O)O4)C3)c2n1 (mixture of isomers) [Example 82, (S)-3-(3-Fluoro-4-methyl-phenyl)-2-oxo-oxazolidine-5-carboxylic acid [(RS)-1-(6-methoxy-[1,5]naphthyridin-4-yl)-pyrrolidin-3-ylmethyl]-amide] | ≤ 0.031
